In US6630471B1, “Substituted triazolo-pyridazine derivative, pharmaceutical compositions made therefrom” (Merck Sharp & Dohme Ltd., priority 1998, dated 2003):

Tests used:
aqueous solubility = type: physicochemical
Text: This conversion is slow due to the low aqueous solubility of Compound I in relation to the large excess of solid compound slurried.

[1] = moisture vapour sorption (adsorption/desorption isotherm); type: physicochemical
Method: These moisture vapour sorption studies show formation of a dihydrate above 80% relative humidity (RH) at 25° C. Hysteresis indicative of hydrate formation is seen to occur, with desorption occurring below ca. 60% RH.

Compound: CCn1ncnc1COc1nn2c(-c3ccccc3F)nnc2cc1C(C)(C)C [Compound I, 7-(1,1-Dimethylethyl)-6-(2-ethyl-2H-1,2,4-triazol-3-ylmethoxy)-3-(2-fluorophenyl)-1,2,4-triazolo[4,3-b]pyridazine]
- aqueous solubility (aqueous solubility): low

Compound: CCn1ncnc1COc1nn2c(-c3ccccc3F)nnc2cc1C(C)(C)C [Compound I polymorph A, 7-(1,1-Dimethylethyl)-6-(2-ethyl-2H-1,2,4-triazol-3-ylmethoxy)-3-(2-fluorophenyl)-1,2,4-triazolo[4,3-b]pyridazine]
- relative humidity of dihydrate formation ([1]; 25° C., adsorption): above 80 % relative humidity (RH)
- relative humidity of desorption (hysteresis) ([1]; 25° C., desorption): < 60 % RH

Compound: CCn1ncnc1COc1nn2c(-c3ccccc3F)nnc2cc1C(C)(C)C [dihydrate of polymorph A, 7-(1,1-Dimethylethyl)-6-(2-ethyl-2H-1,2,4-triazol-3-ylmethoxy)-3-(2-fluorophenyl)-1,2,4-triazolo[4,3-b]pyridazine]
- stability of the dihydrate ([1]; humidity): stable, but only at elevated humidities
